The values below come from patent US12459921B2, “Isoindoline compound, preparation method, pharmaceutical composition and use thereof” (SHANGHAI INSTITUTE OF MATERIA MEDICA, CHINESE ACADEMY OF …, priority 2018, dated 2025).

Some results are limits rather than exact numbers.

The test relates to MM.1S cells. In words: Inhibitory effect on the proliferation of MM.1S, MTS cell viability test. The class given is cell-based. The settings on record: Homo sapiens, MM1.S, 168 h, multiple myeloma MM.1S cells, 7 days incubation, read-out: Tumor cell inhibitory activity. Summed up: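 MM.1S cells (20,000/well, RPMI 1640 with 10% FBS) exposed to 5-fold compound dilutions at 0.2% DMSO for 7 days at 37° C, 5% CO2. MTS added for 3-4 h; OD490-OD690 gave inhibition versus DMSO, IC50 fitted, mean of three experiments.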
With `CC(=O)N[C@@H](CCCc1cccc2c1CN(C1CCC(=O)NC1=O)C2=O)C(=O)NC1C2CC3CC(C2)CC1C3` (stereo partly drawn) [Example 200, (2S)-2-acetylamino-N-((1S,3S,5S,7 S)-adamantane-2-)-5-(2-(2,6-dioxopiperidine-3-)-1-oxoisoindoline-4-)pentanamide], the IC50 is 0.1 to 1 µM.

Consider `N#CC1(c2ccccc2OC(F)(F)F)CCN(CCCOc2cccc3c2CN(C2CCC(=O)NC2=O)C3=O)CC1` (centres unmarked) [Example 78, 1-(3-((2-(2,6-dioxopiperidine-3-)-1-oxoisoindoline-4-)-oxy-)propyl)-4-(2-trifluoromethoxyphenyl)piperidine-4-carbonitrile], for which the IC50 was less than 0.1 µM.

Consider `CC(=O)N[C@@H](CCCc1cccc2c1CN(C1CCC(=O)NC1=O)C2=O)C(=O)NC(C)(C)c1ccccc1` (stereo partly drawn) [Example 188, (2S)-2-acetylamino-5-(2-(2,6-dioxopiperidine-3-)-1-oxoisoindoline-4-)-N-(2-phenylpropyl-2-)pentanamide], for which the IC50 is 0.1 to 1 µM.

With `N#Cc1ccc(C2(C#N)CCN(CCCOc3cccc4c3CN(C3CCC(=O)NC3=O)C4=O)CC2)cc1` (centres unmarked) [Example 69, 4-(4-cyanophenyl)-1-(3-((2-(2,6-dioxopiperidine-3-)-1-oxoisoindoline-4-)oxy)propyl)piperidine-4-carbonitrile], the IC50 was 0.1 to 1 µM.

Regarding `CC(=O)N[C@@H](CCCc1cccc2c1CN(C1CCC(=O)NC1=O)C2=O)C(=O)N(C)Cc1ccccc1` (stereo partly drawn) [Example 204, (2S)-2-acetylamino-N-benzyl-5-(2-(2,6-oxopiperidine-3-)-1-oxoisoindoline-4-)-N-methylpentanamide], the IC50 lay in the range of 1 to 20 µM.

`COc1ccc(C2(C#N)CCN(CCCCCc3cccc4c3CN(C3CCC(=O)NC3=O)C4=O)CC2)c(OC)c1` (centres unmarked) [Example 255, 4-(2,4-dimethoxyphenyl)-1-(5-(2-(2,6-dioxopiperidin-3-yl)-1-oxoisoindoline-4-yl)pentyl)piperidine-4-carbonitrile]: the IC50 was in the range of 1 to 20 µM.

Consider `O=C1CCC(N2Cc3c(OCCCCCN4CCC5(CC4)OCc4ccc(F)cc45)cccc3C2=O)C(=O)N1` (centres unmarked) [Example 144, 3-(4-((5-(6-fluoro-3H-spiro[isobenzofuran-1,4-piperidine]-1-)pentyl)oxy)-1-oxoisoindoline-2-)piperidine-2,6-dione], for which the IC50 was less than 0.1 µM.

In the case of `O=C1CCC(N2Cc3c(CCCCCN4CCC5(CC4)OCc4ccccc45)cccc3C2=O)C(=O)N1` (centres unmarked) [Example 123, 3-(4-(5-(3H-spiro[isobenzofuran-1,4′-piperidine]-1′-)pentyl)-1-oxoisoindoline-2-)piperidine-2,6-dione], the IC50 was less than 0.1 µM.

Take `N#Cc1ccccc1N1CCN(CCCCc2cccc3c2CN(C2CCC(=O)NC2=O)C3=O)CC1` (centres unmarked) [Example 38, 2-(4-(4-(2-(2,6-dioxopiperidine-3-)-1-oxoisoindoline-4-)butyl)piperazine-1-)benzonitrile]: the IC50 is less than 0.1 µM.

Turning to `COc1ccc(CNC(=O)[C@H](CCCc2cccc3c2CN(C2CCC(=O)NC2=O)C3=O)NC(C)=O)c(OC)c1` (stereo partly drawn) [Example 180, (2S)-2-acetylamino-N-(2,4-dimethoxybenzyl)-5-(2-(2,6-dipiperidine-3-)-1-oxoisoindoline-4-)pentanamide], the IC50 lay in the range of 0.1 to 1 µM.

Take `N#CC1(c2ccc(Cl)cc2)CCN(CCCCOc2cccc3c2CN(C2CCC(=O)NC2=O)C3=O)CC1` (centres unmarked) [Example 77, 4-(4-chlorophenyl)-1-(4-((2-(2,6-dioxopiperidine-3-)-1-oxoisoindoline-4-)oxy)butyl)piperidine-4-carbonitrile]: the IC50 lay within 0.1 to 1 µM.

For the molecule `C[C@]1(N2Cc3c(OCCCN4CCC(C#N)(c5ccccc5Cl)CC4)cccc3C2=O)CCC(=O)NC1=O` [Example 80, (S)-4-(2-chlorophenyl)-1-(3-((2-(3-methyl-2,6-dioxopiperidine-3-)-1-oxoisoindoline-4-)oxy)propyl)piperidine-4-carbonitrile], the IC50 lay within 1 to 20 µM.

For the molecule `O=C1CCC(N2Cc3c(OCCCCNC(=O)N4CCC5(CC4)OCc4ccc(Cl)cc45)cccc3C2=O)C(=O)N1` (centres unmarked) [Example 154, 6-chloro-N-(4-((2-(2,6-dioxopiperidine-3-)-1-oxoisoindoline-4-)-oxy-)butyl)-3H-spiro[isobenzofuran-1,4-piperidine]-1-carboxamide], the IC50 was less than 0.1 µM.

In the case of `N#CC1(c2ccc(Cl)cc2)CCN(CCCCCc2cccc3c2CN(C2CCC(=O)NC2=O)C3=O)CC1` (centres unmarked) [Example 49, 4-(4-chlorophenyl)-1-(5-(2-(2,6-dioxopiperidine-3-)-1-oxoisoindoline-4-)pentyl) piperidine-4-carbonitrile], the IC50 is less than 0.1 µM.

Regarding `O=C1CCC(N2Cc3c(CCCCCN4CCN(c5cc(Cl)ccc5Cl)CC4)cccc3C2=O)C(=O)N1` (centres unmarked) [Example 233, 3-(4-(5-(4-(2,5-dichlorophenyl)piperazine-1-yl)pentyl)-1-oxoisoindoline-2-yl) piperidine-2,6-dione], the IC50 lay in the range of 0.1 to 1 µM.

With `O=C1CCC(N2Cc3c(OCCCCC(=O)N4CCc5ccccc54)cccc3C2=O)C(=O)N1` (centres unmarked) [Example 118, 3-(4-((5-(indoline-1-)-5-oxopentyl)oxy)-1-oxoisoindoline-2-)piperidine-2,6-dione], the IC50 was less than 0.1 µM.

Turning to `N#CC1(c2ccc(F)cc2Cl)CCN(CCCOc2cccc3c2CN(C2CCC(=O)NC2=O)C3=O)CC1` (centres unmarked) [Example 74, 4-(2-chloro-4-fluorophenyl)-1-(3-((2-(2,6-dioxopiperidine-3-)-1-oxoisoindoline-4-)oxy)propyl)piperidine-4-carbonitrile], the IC50 is less than 0.1 µM.

Regarding `O=C1CCC(N2Cc3c(CCCCCN4CCOCC4)cccc3C2=O)C(=O)N1` (centres unmarked) [Example 16, 3-(4-(5-morpholinpentyl)-1-oxoisoindoline-2)-piperidine-2,6-dione], the IC50 lay within 0.1 to 1 µM.

Turning to `O=C1CCC(N2Cc3c(CCCCCOc4ccnc5ccsc45)cccc3C2=O)C(=O)N1` (centres unmarked) [Example 9, 3-(1-oxo-4-(5-(thieno[3,2-b]pyridine-7-oxy)pentyl)isoindoline-2-)piperidine-2,6-dione], the IC50 was less than 0.1 µM.

Take `O=C1CCC(N2Cc3c(OCCCN4CCC5(CC4)OCc4ccc(F)cc45)cccc3C2=O)C(=O)N1` (centres unmarked) [Example 142, 3-(4-(3-(6-fluoro-3H-spiro[isobenzofuran-1,4′-piperidine]-1′-)propoxy)-1-oxoisoindoline-2-)piperidine-2,6-dione]: the IC50 fell in the range of 0.1 to 1 µM.

On to `CC(=O)N[C@@H](CCCc1cccc2c1CN(C1CCC(=O)NC1=O)C2=O)c1nc2ccccc2[nH]1` (stereo partly drawn) [Example 203, N-((1S)-1-(1H-benzo[d]imidazole-2-)-4-(2-(2,6-dioxopiperidine-3-)-1-oxoisoindoline-4-)butyl)amide], for which the IC50 is 0.1 to 1 µM.

Take `O=C1CCC(N2Cc3c(CCCCN4CCN(c5ccc(Cl)cc5)CC4)cccc3C2=O)C(=O)N1` (centres unmarked) [Example 41, 3-(4-(4-(4-(4-chlorophenyl)piperazine-1-)butyl)-1-oxoisoindoline-2-)piperidine-2,6-dione]: the IC50 is less than 0.1 µM.

On to `O=C1CCC(N2Cc3c(CCCCCN4CCCCc5ccccc54)cccc3C2=O)C(=O)N1` (centres unmarked) [Example 111, 3-(1-oxo-4-(5-(2,3,4,5-tetrahydro-TH-benzo[b]azepine-1-)pentyl)isoindoline-2-)piperidine-2,6-dione], for which the IC50 lay in the range of 0.1 to 1 µM.

`O=C1CCC(N2Cc3c(CCCCCN4CCN(c5ccc(Cl)c(Cl)c5)CC4)cccc3C2=O)C(=O)N1` (centres unmarked) [Example 234, 3-(4-(5-(4-(3,4-dichlorophenyl)piperazine-1-yl)pentyl)-1-oxoisoindoline-2-yl)piperidine-2,6-dione]: the IC50 was in the range of 0.1 to 1 µM.

As for `O=C1CCC(N2Cc3c(CCCCCN4CCC5(CC4)OCc4ccc(F)cc45)cccc3C2=O)C(=O)N1` (centres unmarked) [Example 156, 3-(4-(5-(6-fluoro-3H-spiro[isobenzofuran-1,4′-piperidine]-1′-)pentyl)-1-oxoisoindoline-2-)piperidine-2,6-dione], the IC50 was less than 0.1 µM.

Turning to `O=C1CCC(N2Cc3c(CCCCCN4CCC5(CC4)OCc4cc(Cl)ccc45)cccc3C2=O)C(=O)N1` (centres unmarked) [Example 274, 3-(4-(5-(5-chloro-3H-spiro[isobenzofuran-1,4′-piperidin]-1-yl)pentyl)-1-oxoisoindoline-2-yl)piperidine-2,6-dione], the IC50 was in the range of 0.1 to 1 µM.

On to `O=C1CCC(N2Cc3c(OCCCCN4CCC5(CC4)OCc4ccc(F)cc45)cccc3C2=O)C(=O)N1` (centres unmarked) [Example 128, 3-(4-(4-(6-fluoro-3H-spiro[isobenzofuran-1,4′-piperidine]-1′-)butoxy)-1-oxoisoindoline-2-)piperidine-2,6-dione], for which the IC50 was less than 0.1 µM.

For the molecule `N#CC1(c2ccc(Cl)cc2Cl)CCN(CCCOc2cccc3c2CN(C2CCC(=O)NC2=O)C3=O)CC1` (centres unmarked) [Example 70, 4-(2,4-chlorophenyl)-1-(3-((2-(2,6-dioxopiperidine-3-)-1-oxoisoindoline-4-)oxy)propyl)piperidine-4-carbonitrile], the IC50 is less than 0.1 µM.

On to `N#CC1(c2ccccc2Cl)CCN(CCCOc2cccc3c2CN(C2CCC(=O)NC2=O)C3=O)CC1` (centres unmarked) [Example 55, 4-(2-chlorophenyl)-1-(3-((2-(2,6-dioxopiperidine-3-)-1-oxoisoindoline-4-)oxy)propyl)piperidine-4-carbonitrile], for which the IC50 is less than 0.1 µM.

`O=C1CCC(N2Cc3c(OCCCCC(=O)N4CCN(c5ccccc5)CC4)cccc3C2=O)C(=O)N1` (centres unmarked) [Example 30]: the IC50 is less than 0.1 µM.

Consider `COc1ccc2c(c1)C1(CCN(CCCCCc3cccc4c3CN(C3CCC(=O)NC3=O)C4=O)CC1)C(=O)N2` (centres unmarked) [Example 135, 3-(4-(5-(5-methoxy-2-oxospiro[indoline-3,4′-piperidine]-1′-)pentyl)-1-oxoisoindoline-2-)piperidine-2,6-dione], for which the IC50 fell in the range of 0.1 to 1 µM.

As to `O=C1CCC(N2Cc3c(OCCCCN4CCN(c5ccc(Cl)c(Cl)c5)CC4)cccc3C2=O)C(=O)N1` (centres unmarked) [Example 243, 3-(4-(4-(4-(3,4-dichlorophenyl)piperazine-1-yl)butoxy)-1-oxoisoindoline-2-yl)piperidine-2,6-dione], the IC50 fell in the range of 0.1 to 1 µM.
